Legend:
[1] = in vitro; details: mouse, microsomes
[2] = in vitro; details: human, microsomes
[3] = in vitro; details: human, microsomes; remark: listed apart in the source
[4] = in vitro; details: mouse, microsomes; remark: listed apart in the source
[5] = Metabolic stability in mouse plasma assessed as compound remaining at 5 uM; format: ADME, cell-free; details: read-out: Stability
[6] = Half life in mouse plasma at 5 uM; format: ADME, cell-free
[7] = mouse, microsomes, 1 µM
[8] = human, microsomes, 1 h, 1 µM
[9] = human, microsomes, 1 µM
[10] = in vitro; details: mouse, microsomes; remark: listed apart in the source
[11] = in vitro; details: human, microsomes; remark: listed apart in the source
[12] = in vitro; details: mouse, microsomes; remark: listed apart in the source
[13] = mouse, microsomes, 1 µM; remark: listed apart in the source
[14] = in vitro; details: human, microsomes; remark: listed apart in the source
[15] = in vitro; details: human, microsomes; remark: listed apart in the source
[16] = in vitro; details: mouse, microsomes; remark: listed apart in the source

Row | remaining at 1 µM [1] [%] | remaining at 1 µM [2] [%] | remaining at 1 µM [3] [%] | remaining at 1 µM [4] [%] | SMILES | also measured
1 | 91 | 82 | 12 | 0 | CC(=O)c1ccc(N(C)S(=O)(=O)c2cccc(C(=O)Nc3ccc(Cl)cn3)c2)cc1 | –
2 | 96 | 91 | 2 | 1 | CN(c1ccc(Cl)cc1)S(=O)(=O)c1cccc(C(=O)Nc2ccc(C#N)cn2)c1 | –
3 | 108 | – | 12 | 0 | CC(=O)c1ccc(N(C)S(=O)(=O)c2cccc(C(=O)Nc3ccc(Cl)cc3)c2)cc1 | –
4 | 100 | 112 | 2 | 4 | CN(c1ccc(Cl)cc1)S(=O)(=O)c1cccc(C(=O)Nc2ccc(S(C)(=O)=O)cc2)c1 | –

The next lines start with the compound.

Row | SMILES | remaining at 1 µM [1] [%] | remaining at 1 µM [2] [%] | remaining at 1 µM [3] [%] | remaining at 1 µM [4] [%] | also measured
5 | COc1ccc(N(C)S(=O)(=O)c2cccc(C(=O)Nc3ccc(C#N)cc3)c2)cc1 | 90 | 106 | 2 | 2 | –
6 | CC(C)[N+](C)(CCOC(=O)C1c2ccccc2Oc2ccccc21)C(C)C [PROPANTHELINE] | – | – | – | – | remaining at 5 µM [5]: 3.4%; half-life at 5 µM [6]: 18 min
7 | CN(c1ccc(F)cc1)S(=O)(=O)c1cccc(C(=O)Nc2ccc(C#N)cc2)c1 | – | – | 16 | – | –
8 | CN(c1ccc(S(C)(=O)=O)cc1)S(=O)(=O)c1cccc(NC(=O)c2ccc(Br)cc2)c1 | – | – | – | – | CL [7]: 136 µL/min/mg; Stability [8]: 0.9%; t1/2 [9]: 75.7 min; microsomal CLint at 1 µM [10]: 945 µL/min/mg; microsomal CLint at 1 µM [11]: 31 µL/min/mg; half-life at 1 µM [12]: 2.45 min; t1/2 [13]: 1.7 min; microsomal CLint at 1 µM [14]: 512 µL/min/mg; half-life at 1 µM [15]: 4.5 min; remaining at 1 h, 1 µM [16]: 1.5%

Source: ChEMBL document CHEMBL3232865, “Development and characterization of 3-(benzylsulfonamido)benzamides as potent and selective SIRT2 inhibitors” (Eur J Med Chem, 2014)
